pKi: −log10 of the molar value. Counter-ions that a name gives are not always drawn.

T1 sequence (P25103 whole entry): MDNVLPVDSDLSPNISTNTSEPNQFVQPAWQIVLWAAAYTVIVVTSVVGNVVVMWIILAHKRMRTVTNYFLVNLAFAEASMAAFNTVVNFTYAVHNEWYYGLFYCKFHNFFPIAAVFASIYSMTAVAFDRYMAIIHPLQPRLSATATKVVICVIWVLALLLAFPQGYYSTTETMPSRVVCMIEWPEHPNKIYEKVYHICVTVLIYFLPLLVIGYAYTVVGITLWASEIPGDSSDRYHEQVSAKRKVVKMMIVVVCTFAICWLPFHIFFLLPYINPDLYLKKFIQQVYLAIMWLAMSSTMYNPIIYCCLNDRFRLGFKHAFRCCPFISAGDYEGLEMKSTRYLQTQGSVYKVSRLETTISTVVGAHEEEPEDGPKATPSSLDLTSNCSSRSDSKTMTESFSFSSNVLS
T2 sequence (P30547 whole entry): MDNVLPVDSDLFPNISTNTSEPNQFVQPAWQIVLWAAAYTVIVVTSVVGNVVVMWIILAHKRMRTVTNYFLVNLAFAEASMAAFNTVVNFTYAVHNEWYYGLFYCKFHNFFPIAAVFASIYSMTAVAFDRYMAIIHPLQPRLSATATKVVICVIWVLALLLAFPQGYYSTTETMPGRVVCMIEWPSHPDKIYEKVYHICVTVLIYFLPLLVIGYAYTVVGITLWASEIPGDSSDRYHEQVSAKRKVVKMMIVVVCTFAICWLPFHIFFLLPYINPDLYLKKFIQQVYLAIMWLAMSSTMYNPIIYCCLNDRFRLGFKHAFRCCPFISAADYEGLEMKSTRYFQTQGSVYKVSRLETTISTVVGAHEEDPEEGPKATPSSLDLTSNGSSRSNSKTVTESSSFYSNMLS

The first experiment has as its target T1, NK1-receptor (substance P-receptor) (Homo sapiens, UniProt P25103).
T1 construct: expressed in transfected cells; host or cells: IM-9 human lymphoblastoma cells
The experiment is described as follows: Receptor affinity for the NK1-receptor, displacement of 125I-labelled substance P on IM-9 cells. It is filed as binding. The note with it: human lymphoblastoma cells (IM-9) with cloned NK1-receptors. The protocol:
The receptor affinity for the NK1-receptor (substance P-receptor) is determined on human lymphoblastoma cells (IM-9) with cloned NK1-receptors, by measuring the displacement of ^125I-labelled substance P. The K1-values thus obtained show the efficacy of the compounds: […]
By pKi is commonly meant −log10 of the Ki, conventionally taken in molar units. `CN(CCc1cc(C(F)(F)F)cc(C(F)(F)F)c1)C(=O)C(c1ccccc1)N1CCC(NCC(=O)N2CCOCC2)CC1` (stereo not drawn) [Example 23] had a pKi of 8.60.
In turn, `CN(C)CCN1CCN(C(C(=O)N(C)CCc2cc(C(F)(F)F)cc(C(F)(F)F)c2)c2ccccc2)CC1` (stereo not drawn) [Example 28] gave a pKi of 8.89.
Same read-out and setting: with `C#CCN1CCN(C(C(=O)N(C)CCc2cc(C(F)(F)F)cc(C(F)(F)F)c2)c2ccccc2)CC1` (stereo not drawn) [Example 25] the figure was 8.22; with `CN(CCc1cc(C(F)(F)F)cc(C(F)(F)F)c1)C(=O)C(c1ccccc1)N1CCC(N(CCO)CCO)CC1` (stereo not drawn) [Example 55], 8.90.
In the case of `CN(CCc1cc(C(F)(F)F)cc(C(F)(F)F)c1)C(=O)C(c1ccccc1)N1CCN(c2ncccn2)CC1` (stereo not drawn) [Example 3], the pKi is 7.72.
On the same count and under the same terms, with `COCCN1CCN(C(C(=O)N(C)CCc2cc(C(F)(F)F)cc(C(F)(F)F)c2)c2ccccc2)CC1` (stereo not drawn) [Example 30] the figure was 8.74; with `CN(CCc1cc(C(F)(F)F)cc(C(F)(F)F)c1)C(=O)C(c1ccccc1)N1CCC(N(C)CCO)CC1` (stereo not drawn) [Example 16], 9.05; with `CN(CCc1cc(C(F)(F)F)cc(C(F)(F)F)c1)C(=O)C(c1ccccc1)N1CCC(N(C)CCCCO)CC1` (stereo not drawn) [Example 76], 8.70.
In turn, `CN(CCc1cc(C(F)(F)F)cc(C(F)(F)F)c1)C(=O)C(c1ccccc1)N1CCN(CCO)CC1` (stereo not drawn) [Example 26] showed a negative logarithm of the Ki (pKi) of 8.80.
On the same count and under the same terms, with `CN1CCN(C(C(=O)N(C)CCc2cc(C(F)(F)F)cc(C(F)(F)F)c2)c2ccccc2)CC1` (stereo not drawn) [Example 64] the figure was 8.96.
For the compound `CN(CCc1cc(C(F)(F)F)cc(C(F)(F)F)c1)C(=O)C(c1ccccc1)N1CCC(N2CCC(N3CCCCC3)CC2)CC1` (stereo not drawn) [Example 13], the pKi is 8.62.
The compound `CC(C)NC1CCN(C(C(=O)N(C)CCc2cc(C(F)(F)F)cc(C(F)(F)F)c2)c2ccccc2)CC1` (stereo not drawn) [Example 20] showed a pKi of 8.70.
Regarding `CC(C)(Cc1cc(C(F)(F)F)cc(C(F)(F)F)c1)NC(=O)C(c1ccccc1)N1CCNCC1` (stereo not drawn) [Example 34], the negative-log Ki (pKi) is 8.54.
Same read-out and setting: with `CCCN1CCN(C(C(=O)N(C)CCc2cc(C(F)(F)F)cc(C(F)(F)F)c2)c2ccccc2)CC1` (stereo not drawn) [Example 63] the figure was 8.85; with `CN(CCc1cc(C(F)(F)F)cc(C(F)(F)F)c1)C(=O)C(c1ccccc1)N1CCN(CC(=O)N2CCCC2)CC1` (stereo not drawn) [Example 11], 8.42.
Regarding `CC(C)N1CCN(C(C(=O)N(C)CCc2cc(C(F)(F)F)cc(C(F)(F)F)c2)c2ccccc2)CC1=O` (stereo not drawn) [Example 32], the negative logarithm of the Ki (pKi) was 8.89.
The same measure, in the same setting: with `CN(CCc1cc(C(F)(F)F)cc(C(F)(F)F)c1)C(=O)C(c1ccccc1)N1CCC(N2CCN(CC(N)=O)CC2)CC1` (stereo not drawn) [Example 12] the figure was 8.30.
`CN1CCCN(C(C(=O)N(C)CCc2cc(C(F)(F)F)cc(C(F)(F)F)c2)c2ccccc2)CC1` (stereo not drawn) [Example 4]: the negative logarithm of the Ki (pKi) is 8.85.
`CC(C)N1CCN(C(C(=O)N(C)CCc2cc(C(F)(F)F)cc(C(F)(F)F)c2)c2cccc3c2OCO3)CC1` (stereo not drawn) [Example 73]: the pKi is 8.70.
The same measure, in the same setting: with `CCN(CC)C1CCN(C(C(=O)N(C)CCc2cc(C(F)(F)F)cc(C(F)(F)F)c2)c2ccccc2)CC1` (stereo not drawn) [Example 15] the figure was 9.01; with `CC(C)N1CCN(C(C(=O)NC(C)(C)Cc2cc(C(F)(F)F)cc(C(F)(F)F)c2)c2ccccc2)CC1` (stereo not drawn) [Example 33], 8.13; with `CN(CCc1cc(C(F)(F)F)cc(C(F)(F)F)c1)C(=O)C(c1ccccc1)N1CCNCC1` (stereo not drawn) [Example 2], 9.00.
On the same count and under the same terms, with `CN1CCC(N2CCN(C(C(=O)N(C)CCc3cc(C(F)(F)F)cc(C(F)(F)F)c3)c3ccccc3)CC2)CC1` (stereo not drawn) [Example 9] the figure was 8.60.
Take `CC(C)N1CCN(C(C(=O)N(C)CCc2cc(C(F)(F)F)cc(C(F)(F)F)c2)c2ccccc2)CC1` (stereo not drawn) [Example 74]: the pKi was 8.82.
The compound `CN(CCc1cc(C(F)(F)F)cc(C(F)(F)F)c1)C(=O)C(c1ccccc1)N1CCC(N(C)C)CC1` (stereo not drawn) [Example 5] gave a pKi of 8.82.
On the same count and under the same terms, with `CN1CCN(C2CCN(C(C(=O)N(C)CCc3cc(C(F)(F)F)cc(C(F)(F)F)c3)c3ccccc3)CC2)CC1` (stereo not drawn) [Example 8] the figure was 8.74; with `COc1ccc(C(C(=O)N(C)CCc2cc(C(F)(F)F)cc(C(F)(F)F)c2)N2CCN(C(C)C)CC2)cc1OC` (stereo not drawn) [Example 65], 8.24.
The same measure, in the same setting: with `CN(CCc1cc(C(F)(F)F)cc(C(F)(F)F)c1)C(=O)C(c1ccccc1)N1CCC(O)CC1` (stereo not drawn) [Example 22] the figure was 8.66; with `COc1ccc(C(C(=O)N(C)CCc2cc(C(F)(F)F)cc(C(F)(F)F)c2)N2CCNCC2)cc1OC` (stereo not drawn) [Example 47], 8.77.
Same read-out and setting: with `CNC1CCN(C(C(=O)N(C)CCc2cc(C(F)(F)F)cc(C(F)(F)F)c2)c2ccccc2)CC1` (stereo not drawn) [Example 18] the figure was 9.02; with `CN(CCc1cc(C(F)(F)F)cc(C(F)(F)F)c1)C(=O)[C@H](c1ccccc1)N1CCNCC1` [Example 75], 9.36; with `C=CCN1CCN(C(C(=O)N(C)CCc2cc(C(F)(F)F)cc(C(F)(F)F)c2)c2ccccc2)CC1` (stereo not drawn) [Example 24], 8.66.
Turning to `CN(CCc1cc(C(F)(F)F)cc(C(F)(F)F)c1)C(=O)C(c1ccccc1)N1CCC(N)CC1` (stereo not drawn) [Example 17], the pKi was 8.11.
On the same count and under the same terms, with `CN(CCc1cc(C(F)(F)F)cc(C(F)(F)F)c1)C(=O)C(c1ccccc1)N1CCC(NC2CCCC2)CC1` (stereo not drawn) [Example 19] the figure was 8.93.
For the compound `CC(C)N1CCN(C(C(=O)N(C)CCc2cc(C(F)(F)F)cc(C(F)(F)F)c2)c2ccccc2)CC1` (racemic) [Example 1, (R,S)-1-i-propyl-4-[2-phenylacetic acid-N-methyl-N-(3,5-bistrifluoromethylphenylethyl)]-amide dihydrochloride], the pKi was 8.92.

The next experiment addresses T2, NK1 (Cavia porcellus, UniProt P30547).
T2 construct: from tissue; host or cells: whole animal (anaesthetised guinea pig)
The experiment is described as follows: Inhibition of lowering of blood pressure caused by NK1 in anaesthetised guinea pigs. It is filed as in vivo. The following applies: 1 mg/kg administered into the duodenum, NK1-agonist [βAla4, Sar9, Met(O2)11]SP(4-11) 0.2 μmol/kg i.v. As for the experimental part: Inhibition of lowering of blood pressure caused by NK1 in anaesthetised guinea pigs.
Guinea pigs weighing 300–500 grams were anaesthetised with pentobarbital (50 mg/kg i.p.), intubated and artificially ventilated. They were ventilated with 10 ml/kg of air at a frequency of 60 breaths per minute. The carotid artery was canulated and the arterial blood pressure was recorded. A polyethylene tube was inserted into the jugular vein for the intravenous supply of substances.
A temporary reduction in blood pressure was brought about at intervals of 10 minutes by intravenous administration of the NK1-agonist [βAla^4, Sar^9, Met (O2)^11]Sp(4-11)
[drawing 30] in a dose of 0.2 μmol/kg. After the blood pressure thus produced had been measured, the test compound was introduced into the duodenum and the NK1-agonist was again injected every 10 minutes.
The results were expressed as a % inhibition of the reduction in blood pressure caused by the NK1-agonist specified.
With `CC(C)N1CCN(C(C(=O)N(C)CCc2cc(C(F)(F)F)cc(C(F)(F)F)c2)c2ccccc2)CC1` (racemic) [Example 1, (R,S)-1-i-propyl-4-[2-phenylacetic acid-N-methyl-N-(3,5-bistrifluoromethylphenylethyl)]-amide dihydrochloride], the “% inhibition of the reduction in blood pressure caused by the NK1-agonist” value is on record as 80%.

These data come from US7084140B2, “Arylglycinamide derivatives, method of producing said derivatives and pharmaceutical compositions containing these compounds” (Boehringer Ingelheim Pharma GmbH & Co. KG, priority 1996, dated 2006).
